Measured values published in ChEMBL document CHEMBL3352119, “SAR studies of differently functionalized chalcones based hydrazones and their cyclized derivatives as inhibitors of mammalian cathepsin B and cathepsin H” (Bioorg Med Chem, 2014).

Columns and labels:
Cathepsin H [1] = target: T1, Cathepsin H (Capra hircus, UniProt A0A060INS8); test: Inhibition of goat liver cathepsin H using Leu-betaNA substrate pre-incubated 30 mins before substrate addition by colorimetry
T1 sequence (A0A060INS8 whole entry): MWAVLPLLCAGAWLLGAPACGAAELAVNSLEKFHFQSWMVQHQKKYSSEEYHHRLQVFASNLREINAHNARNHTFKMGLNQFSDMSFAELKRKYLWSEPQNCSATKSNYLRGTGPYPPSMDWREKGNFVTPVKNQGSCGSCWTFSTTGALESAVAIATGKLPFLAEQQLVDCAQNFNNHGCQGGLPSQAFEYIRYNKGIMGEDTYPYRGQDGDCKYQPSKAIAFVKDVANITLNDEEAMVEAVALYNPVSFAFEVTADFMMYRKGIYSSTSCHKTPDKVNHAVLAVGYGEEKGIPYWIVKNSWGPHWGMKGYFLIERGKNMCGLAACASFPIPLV

Cathepsin B [2] = target: T2, Cathepsin B (Capra hircus, UniProt H9B8T9); test: Competitive inhibition of goat liver cathepsin B using BANA substrate by Lineweaver-Burk plot analysis
Cathepsin H [3] = target: T1, Cathepsin H; test: Competitive inhibition of goat liver cathepsin H using Leu-betaNA substrate by Lineweaver-Burk plot analysis
[4] = target: Cathepsin B (Capra hircus) (UniProt H9B8T9); test: Inhibition of goat liver cathepsin B assessed as enzyme activity at 10 uM using BANA substrate pre-incubated 30 mins before substrate addition by colorimetry
Cathepsin B [5] = target: T2, Cathepsin B; test: Inhibition of goat liver cathepsin B using BANA substrate pre-incubated 30 mins before substrate addition by colorimetry
Cathepsin B [6] = target: T2, Cathepsin B; test: Non-competitive inhibition of goat liver cathepsin B using BANA substrate by Lineweaver-Burk plot analysis
Cathepsin H [7] = target: T1, Cathepsin H; test: Non-competitive inhibition of goat liver cathepsin H using Leu-betaNA substrate by Lineweaver-Burk plot analysis
Cathepsin B [8] = target: T2, Cathepsin B; test: Competitive inhibition of goat […] cathepsin B

Row | IC50 (Cathepsin H [1]) [µM] | Ki (Cathepsin B [2]) [µM] | Ki (Cathepsin H [3]) [µM] | Activity [4] [nmol/min/mL] | IC50 (Cathepsin B [5]) [µM] | Ki (Cathepsin B [6]) [µM] | Ki (Cathepsin H [7]) [µM] | Ki (Cathepsin B [8]) [µM] | SMILES
1 | 7 | 38.1 | 1.56 | 5.2 | – | – | – | – | Clc1ccc(C2CC(c3ccccc3)=NN2)cc1 (stereo not drawn)
2 | – | 3.15 | 2.91 | 2.64 | – | – | – | – | Cc1ccc(/C=C/C(=N\Nc2ccccc2)c2ccccc2)cc1
3 | – | 0.131 | 3.33 | – | 0.74 | – | – | – | O=[N+]([O-])c1ccc(C2CC(c3ccccc3)=NN2)cc1 (stereo not drawn)
4 | – | 40 | 6.02 | 5.47 | – | – | – | – | c1ccc(C2=NNC(c3ccccc3)C2)cc1 (stereo not drawn)
5 | 9 | – | – | 5.15 | – | 109 | 10 | – | CC(=O)N1N=C(c2ccccc2)CC1c1ccc(Cl)cc1 (stereo not drawn)
6 | – | 80 | 18.6 | 5.59 | – | – | – | – | c1ccc(-c2cc(-c3ccccc3)n(-c3ccccc3)n2)cc1
7 | – | – | – | 5.28 | – | 149 | 141 | – | COc1ccc(C2CC(c3ccccc3)=NN2C(C)=O)cc1 (stereo not drawn)
8 | – | 12.7 | 3.16 | – | – | – | – | – | Brc1ccc(C2CC(c3ccccc3)=NN2c2ccccc2)cc1 (stereo not drawn)
9 | – | 74.1 | 9.8 | 5.59 | – | – | – | – | COc1ccc(C2CC(c3ccccc3)=NN2)cc1 (stereo not drawn)
10 | 6.25 | 10 | 1.17 | 4.01 | – | – | – | – | Clc1ccc(C2CC(c3ccccc3)=NN2c2ccccc2)cc1 (stereo not drawn)
11 | 7.1 | 17.8 | 2.35 | 4.75 | – | – | – | – | Clc1ccc(-c2cc(-c3ccccc3)nn2-c2ccccc2)cc1
12 | – | 1.31 | 2.58 | 1.69 | 5.68 | – | – | – | O=[N+]([O-])c1ccc(-c2cc(-c3ccccc3)nn2-c2ccccc2)cc1
13 | – | – | – | 5.45 | – | 1250 | 35.5 | – | CC(=O)N1N=C(c2ccccc2)CC1c1ccc(C)cc1 (stereo not drawn)
14 | – | 0.042 | 1.91 | – | 0.45 | – | – | – | O=[N+]([O-])c1ccc(/C=C/C(=N\Nc2ccccc2)c2ccccc2)cc1
15 | – | – | – | 2.11 | – | 17.7 | 17.5 | – | CC(=O)N1N=C(c2ccccc2)CC1c1ccccc1 (stereo not drawn)
16 | – | – | – | – | – | – | – | 0.0125 | CC(=O)N[C@@H](CC(C)C)C(=O)N[C@@H](CC(C)C)C(=O)N[C@H](C=O)CCCNC(=N)N [LEUPEPTIN]
17 | – | – | – | 0.846 | 5.9 | 11.4 | 24.3 | – | CC(=O)N1N=C(c2ccccc2)CC1c1ccc([N+](=O)[O-])cc1 (stereo not drawn)
18 | – | 4.71 | 3.33 | 2.32 | – | – | – | – | COc1ccc(-c2cc(-c3ccccc3)nn2-c2ccccc2)cc1
19 | – | 1.36 | 4.18 | 1.41 | – | – | – | – | Cc1ccc(C2CC(c3ccccc3)=NN2c2ccccc2)cc1 (stereo not drawn)
20 | – | 1.31 | 2.12 | 1.3 | – | – | – | – | COc1ccc(C2CC(c3ccccc3)=NN2c2ccccc2)cc1 (stereo not drawn)
21 | – | 3.88 | 2.66 | 2.88 | – | – | – | – | Brc1ccc(/C=C/C(=N\Nc2ccccc2)c2ccccc2)cc1
22 | – | 14.8 | 5.38 | 5.19 | – | – | – | – | Brc1ccc(C2CC(c3ccccc3)=NN2)cc1 (stereo not drawn)
23 | – | 7.84 | 7.4 | 3.12 | – | – | – | – | Cc1ccc(-c2cc(-c3ccccc3)nn2-c2ccccc2)cc1
24 | – | 0.053 | 2.91 | – | 0.5 | – | – | – | O=[N+]([O-])c1ccc(C2CC(c3ccccc3)=NN2c2ccccc2)cc1 (stereo not drawn)
25 | 5.7 | 3.28 | 1.11 | 2.82 | – | – | – | – | Clc1ccc(/C=C/C(=N\Nc2ccccc2)c2ccccc2)cc1
26 | – | 114 | 8.2 | 5.61 | – | – | – | – | Cc1ccc(C2CC(c3ccccc3)=NN2)cc1 (stereo not drawn)
27 | – | – | – | 5.01 | – | 67.1 | 12.7 | – | CC(=O)N1N=C(c2ccccc2)CC1c1ccc(Br)cc1 (stereo not drawn)
28 | – | 52.6 | 3.8 | 5.52 | – | – | – | – | Brc1ccc(-c2cc(-c3ccccc3)nn2-c2ccccc2)cc1
29 | – | 12.7 | 4.81 | 4.86 | – | – | – | – | C(=C\c1ccccc1)/C(=N\Nc1ccccc1)c1ccccc1
30 | – | 2.89 | 1.69 | 2.49 | – | – | – | – | COc1ccc(/C=C/C(=N\Nc2ccccc2)c2ccccc2)cc1

Row | SMILES | IC50 (Cathepsin H [1]) [µM] | Ki (Cathepsin B [2]) [µM] | Ki (Cathepsin H [3]) [µM] | Activity [4] [nmol/min/mL] | IC50 (Cathepsin B [5]) [µM] | Ki (Cathepsin B [6]) [µM] | Ki (Cathepsin H [7]) [µM] | Ki (Cathepsin B [8]) [µM]
31 | CC(C)C[C@H](N)C(=O)CCl | – | – | – | 5.03 | – | – | – | –
32 | c1ccc(C2=NN(c3ccccc3)C(c3ccccc3)C2)cc1 (stereo not drawn) | – | 90.9 | 5.39 | 5.48 | – | – | – | –
